Experiments:
[1] = system: pigs in which lung injury was induced; assay: Partial pressure of oxygen in arterial blood (PaO2) in pigs with HCl-induced pulmonary injury; format: in vivo, New Yorkshire male pigs; conditions: pig
Procedure: (§1) A Teflon catheter was inserted into the femoral artery of each animal for measuring blood pressure, blood ANP level and blood gas. At the same time, a pulmonary arterial cathether was inserted through the right cephalic vein for recording the changes in pulmonary arterial pressure. Pulmonary arterial pressure (PAP) and right atrial pressure (RAP) were measured with thermistor-tipped pressure transducers. Pulmonary capillary wedge pressure (PCWP) was measured with a baloon-fitted catheter. Cardiac output (CO) was calculated from the average of three measurements by the thermodilution method. Body temperature was measured with a thermistor inserted into the pulmonary artery and maintained at 37°-38° C. with the aid of a heat jacket. Electrocardiograms were induced from the four limbs and the ECC waveform and the number of heart beats were measured.

[2] = system: pigs in which lung injury was induced; assay: Pulmonary arterial pressure (PAP) in pigs with HCl-induced pulmonary injury; format: in vivo, New Yorkshire male pigs; conditions: pig
Procedure: as §1

[3] = system: pigs in which lung injury was induced; assay: Blood pressure (BP) in pigs with HCl-induced pulmonary injury; format: in vivo, New Yorkshire male pigs; conditions: pig
Procedure: as §1

[4] = system: pigs in which lung injury was induced; assay: Urine excretion in pigs with HCl-induced pulmonary injury; conditions: pig, ANP versus furosemide
Procedure: New Yorkshire male pigs weighing 16-24 kg were used in all experiments. The animals were allowed neither food nor water for 44 hr before test. They were initially anesthetized by intravenous injection of pentobarbital sodium (2.0 mg/kg) and pancuronium bromide (0.1 mg/kg) and, thereafter, the anesthetization was maintained by sustained intravenous injection of pentobarbital sodium (0.5 mg/kg/hr) and pancuronium bromide (0.1 mg/kg/hr). The animals were placed in prone position and ventilated at a frequency of 17 breaths/min with a tidal volume of 10-15 ml/kg, with the partial pressure of oxygen in arterial blood (PaO2) being held at 35-45 Torr. Physiological saline (5 ml/kg) was initially infused by intravenous injection, followed by sustained intravenous injection for 30 min at a rate of 4 ml/kg/hr.
A cannula was inserted into the bladder of each animal and urine samples were collected at 30-min intervals. Blood sampling and hemodynamic measurements were also conducted at 30-min Intervals but intermediate between collections of urine samples. Blood samples for assaying blood α-hANP levels were collected into chilled glass tubes each containing EDTA (0.1 mg/ml) and aprotinin (500 KIU/ml). […] Plasma α-hANP levels were measured by the RIA method using a rabbit anti α-hANP antibody. […]

[5] = baseline (before HCl aspiration)

For `NS(=O)(=O)c1cc(C(=O)O)c(NCc2ccco2)cc1Cl` [furosemide], the “compensation of the decrease in PaO2 induced by HCl aspiration” value [1] was “could be compensated”, the PaO2 ([1]; 60 min after HCl aspiration (before drug administration)) was 120.5±33.1 mmHg and the PaO2 ([1]; 60 min after administration (180 min after HCl aspiration), control 171.1) was 287.9±78.2 mmHg. It also gave a PaO2 [1, 5] of 490.3±29.0 mmHg, a PAP ([2]; after 60 min of administration (120 min after HCl aspiration), control 18.9±2.4) of 20.4±2.3 mmHg and a PAP [2, 5] of 12.7±1.9 mmHg. For the same compound, the “BP lowering action / changes in BP” value [3] was “No significant changes” and the “intensity of diuretic action” value [4] was “comparable to each other”.
